Measurements taken from paper PMC4505863 (ACS Chemical Neuroscience, 2014).
Read-outs that look alike come from different tables or passages of the source.

Experiments:
5-HT2A receptor [1] = target: T1, 5-HT2A receptor (Homo sapiens, UniProt P28223); test: h5-HT2A affinity, agonist radioligand [125I]DOI; assay type: binding
human 5-HT2C receptor [2] = target: T2, human 5-HT2C receptor (Homo sapiens, UniProt P28335); test: h5-HT2C affinity, agonist radioligand [125I]DOI; assay type: binding
T2 sequence (P28335 33-458): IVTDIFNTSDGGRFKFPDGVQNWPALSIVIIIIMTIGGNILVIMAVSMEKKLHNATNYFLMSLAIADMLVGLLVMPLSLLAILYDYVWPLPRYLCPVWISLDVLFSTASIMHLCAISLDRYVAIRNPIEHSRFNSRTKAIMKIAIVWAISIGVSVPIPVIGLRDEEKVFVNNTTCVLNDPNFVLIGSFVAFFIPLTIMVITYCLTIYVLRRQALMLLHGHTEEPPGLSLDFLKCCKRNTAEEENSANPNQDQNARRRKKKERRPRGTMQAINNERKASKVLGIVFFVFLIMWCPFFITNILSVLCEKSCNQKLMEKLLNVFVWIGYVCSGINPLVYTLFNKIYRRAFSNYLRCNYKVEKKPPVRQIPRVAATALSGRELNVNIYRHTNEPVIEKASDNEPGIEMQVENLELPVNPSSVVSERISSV

5-HT2B = 5-HT2B (Homo sapiens, UniProt P41595); test: PDSP screening affinity 5-HT2B; assay type: binding; settings: 5-HT2B affinity
Chain of 5-HT2B (P41595 whole entry): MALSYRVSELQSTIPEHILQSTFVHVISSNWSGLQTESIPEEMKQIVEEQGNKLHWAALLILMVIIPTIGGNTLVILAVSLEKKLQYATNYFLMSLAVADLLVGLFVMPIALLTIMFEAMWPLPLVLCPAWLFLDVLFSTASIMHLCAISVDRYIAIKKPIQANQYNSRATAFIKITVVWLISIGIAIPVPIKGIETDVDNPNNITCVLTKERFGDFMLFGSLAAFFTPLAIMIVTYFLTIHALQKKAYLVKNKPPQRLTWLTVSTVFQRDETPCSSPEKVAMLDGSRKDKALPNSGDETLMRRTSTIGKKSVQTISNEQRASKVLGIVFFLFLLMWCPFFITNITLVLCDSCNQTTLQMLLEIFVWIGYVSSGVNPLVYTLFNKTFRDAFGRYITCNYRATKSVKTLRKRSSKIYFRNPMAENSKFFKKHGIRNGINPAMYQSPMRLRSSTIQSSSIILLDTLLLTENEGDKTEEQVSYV

r5-HT2C = target: T3, r5-HT2C (Rattus norvegicus, UniProt P08909); test: Ca2+ mobilization assay; assay type: cell-based; settings: for Emax: read-out: r5-HT2C Emax
T3 sequence (P08909 33-460): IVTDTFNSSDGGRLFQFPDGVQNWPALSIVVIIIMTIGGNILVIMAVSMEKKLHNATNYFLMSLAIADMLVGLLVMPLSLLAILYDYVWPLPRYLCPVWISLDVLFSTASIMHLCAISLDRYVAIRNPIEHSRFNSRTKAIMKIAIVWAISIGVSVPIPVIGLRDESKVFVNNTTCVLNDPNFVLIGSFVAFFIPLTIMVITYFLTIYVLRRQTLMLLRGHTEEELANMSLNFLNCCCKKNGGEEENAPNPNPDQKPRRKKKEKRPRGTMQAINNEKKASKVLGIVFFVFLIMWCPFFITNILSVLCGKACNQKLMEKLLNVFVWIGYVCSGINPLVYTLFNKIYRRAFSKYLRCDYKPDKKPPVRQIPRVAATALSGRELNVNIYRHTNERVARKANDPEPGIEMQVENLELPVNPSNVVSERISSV

5-HT7 = 5-HT7 (Homo sapiens, UniProt P34969); test: PDSP screening affinity 5-HT7; assay type: binding
Chain of 5-HT7 (P34969 whole entry): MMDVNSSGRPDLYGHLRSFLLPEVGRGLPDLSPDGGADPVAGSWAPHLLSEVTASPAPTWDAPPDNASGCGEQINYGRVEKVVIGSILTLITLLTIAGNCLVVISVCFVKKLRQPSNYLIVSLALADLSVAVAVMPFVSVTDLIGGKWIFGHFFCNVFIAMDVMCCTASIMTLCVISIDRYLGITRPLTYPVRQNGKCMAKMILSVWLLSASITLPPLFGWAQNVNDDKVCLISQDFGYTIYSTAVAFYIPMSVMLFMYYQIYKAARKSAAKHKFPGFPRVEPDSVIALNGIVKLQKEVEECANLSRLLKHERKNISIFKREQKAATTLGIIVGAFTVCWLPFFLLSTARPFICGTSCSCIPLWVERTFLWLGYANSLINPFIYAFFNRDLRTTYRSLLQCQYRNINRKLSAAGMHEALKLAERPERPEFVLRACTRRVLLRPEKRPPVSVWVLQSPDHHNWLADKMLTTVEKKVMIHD

5-HT1B = 5-HT1B (Homo sapiens, UniProt P28222); test: PDSP screening affinity 5-HT1B; assay type: binding
Chain of 5-HT1B (P28222 whole entry): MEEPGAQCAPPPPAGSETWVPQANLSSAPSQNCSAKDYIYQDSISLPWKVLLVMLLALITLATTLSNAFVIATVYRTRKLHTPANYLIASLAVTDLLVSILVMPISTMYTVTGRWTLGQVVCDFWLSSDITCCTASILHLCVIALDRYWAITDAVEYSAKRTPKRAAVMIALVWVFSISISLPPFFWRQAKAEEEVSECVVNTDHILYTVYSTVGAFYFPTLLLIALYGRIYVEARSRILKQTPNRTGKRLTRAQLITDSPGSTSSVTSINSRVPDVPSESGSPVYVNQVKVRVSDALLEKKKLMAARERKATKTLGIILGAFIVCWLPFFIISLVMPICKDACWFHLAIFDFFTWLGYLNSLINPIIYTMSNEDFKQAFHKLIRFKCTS

r5-HT2A = r5-HT2A (Rattus norvegicus, UniProt P14842); test: Ca2+ mobilization assay; assay type: cell-based; settings: for EC50: r5-HT2A EC50, Ca2+ mobilization; for Emax: read-out: r5-HT2A Emax, percentage of the maximum response to 5-HT
Chain of r5-HT2A (P14842 whole entry): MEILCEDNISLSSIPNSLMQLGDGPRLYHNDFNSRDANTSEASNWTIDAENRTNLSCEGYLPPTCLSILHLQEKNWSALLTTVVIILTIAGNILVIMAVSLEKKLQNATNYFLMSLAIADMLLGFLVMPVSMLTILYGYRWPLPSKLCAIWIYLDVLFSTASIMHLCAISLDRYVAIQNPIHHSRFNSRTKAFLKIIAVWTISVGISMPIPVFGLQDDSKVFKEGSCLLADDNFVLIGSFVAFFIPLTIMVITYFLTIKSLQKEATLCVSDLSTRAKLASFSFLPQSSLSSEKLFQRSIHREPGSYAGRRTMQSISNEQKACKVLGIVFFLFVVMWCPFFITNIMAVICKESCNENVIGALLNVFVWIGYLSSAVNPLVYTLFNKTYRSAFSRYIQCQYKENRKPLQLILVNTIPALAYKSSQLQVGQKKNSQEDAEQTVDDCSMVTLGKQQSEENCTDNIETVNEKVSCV

5-HT1A = target: T4, 5-HT1A (Homo sapiens, UniProt P08908); test: PDSP screening affinity 5-HT1A; assay type: binding
T4 sequence (P08908 1-422): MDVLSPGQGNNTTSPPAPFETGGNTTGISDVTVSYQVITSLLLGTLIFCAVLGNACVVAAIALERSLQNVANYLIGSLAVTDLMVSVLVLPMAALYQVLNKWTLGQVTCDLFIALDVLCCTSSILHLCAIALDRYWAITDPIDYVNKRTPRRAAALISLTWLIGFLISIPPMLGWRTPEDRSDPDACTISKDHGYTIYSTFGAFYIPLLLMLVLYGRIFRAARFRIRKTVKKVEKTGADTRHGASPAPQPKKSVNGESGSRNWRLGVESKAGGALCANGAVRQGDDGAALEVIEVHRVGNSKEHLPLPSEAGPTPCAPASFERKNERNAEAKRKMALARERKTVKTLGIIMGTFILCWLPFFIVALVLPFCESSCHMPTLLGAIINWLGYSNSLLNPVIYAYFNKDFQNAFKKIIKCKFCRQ

h5-HT2C = target: T5, h5-HT2C (Homo sapiens, UniProt P28335); test: Ca2+ mobilization assay; assay type: cell-based; settings: for Emax: HEK293, read-out: h5HT2C Emax; for EC50: h5HT2C EC50, Ca2+ mobilization
T5 sequence (P28335 33-458): T2 sequence (P28335 33-458)

human 5-HT2C receptor [3] = target: T2, human 5-HT2C receptor; test: h5-HT2C affinity, antagonist radioligand [3H]mesulergine; assay type: binding
5-HT3 = target: T6, 5-HT3 (Homo sapiens, UniProt P46098); test: PDSP screening affinity 5-HT3; assay type: binding
T6 sequence (P46098 24-478): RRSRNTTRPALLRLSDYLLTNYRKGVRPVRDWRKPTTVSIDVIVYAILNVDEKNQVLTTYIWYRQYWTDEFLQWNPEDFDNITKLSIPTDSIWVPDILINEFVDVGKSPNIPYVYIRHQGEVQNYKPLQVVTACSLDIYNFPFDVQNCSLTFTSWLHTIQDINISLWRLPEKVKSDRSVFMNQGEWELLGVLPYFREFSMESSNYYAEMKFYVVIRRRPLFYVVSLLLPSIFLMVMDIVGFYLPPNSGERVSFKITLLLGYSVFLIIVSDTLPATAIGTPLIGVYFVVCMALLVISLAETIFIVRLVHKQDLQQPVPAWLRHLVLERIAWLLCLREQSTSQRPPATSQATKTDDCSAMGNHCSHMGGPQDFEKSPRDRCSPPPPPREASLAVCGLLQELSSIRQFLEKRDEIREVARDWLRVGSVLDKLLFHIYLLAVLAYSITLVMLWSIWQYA

5-ht1e = 5-ht1e (Homo sapiens, UniProt P28566); test: PDSP screening affinity 5-ht1e; assay type: binding
Chain of 5-ht1e (P28566 whole entry): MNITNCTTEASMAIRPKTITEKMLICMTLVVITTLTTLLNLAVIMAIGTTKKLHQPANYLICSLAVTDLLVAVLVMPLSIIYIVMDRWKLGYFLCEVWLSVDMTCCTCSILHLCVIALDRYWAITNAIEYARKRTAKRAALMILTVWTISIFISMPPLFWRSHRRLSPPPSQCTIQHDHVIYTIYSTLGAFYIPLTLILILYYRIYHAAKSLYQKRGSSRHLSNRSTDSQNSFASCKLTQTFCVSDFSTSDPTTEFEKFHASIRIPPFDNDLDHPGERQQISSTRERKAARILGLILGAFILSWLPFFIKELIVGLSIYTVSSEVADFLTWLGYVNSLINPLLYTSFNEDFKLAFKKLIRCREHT

5-HT1D = 5-HT1D (Homo sapiens, UniProt P28221); test: PDSP screening affinity 5-HT1D; assay type: binding
Chain of 5-HT1D (P28221 whole entry): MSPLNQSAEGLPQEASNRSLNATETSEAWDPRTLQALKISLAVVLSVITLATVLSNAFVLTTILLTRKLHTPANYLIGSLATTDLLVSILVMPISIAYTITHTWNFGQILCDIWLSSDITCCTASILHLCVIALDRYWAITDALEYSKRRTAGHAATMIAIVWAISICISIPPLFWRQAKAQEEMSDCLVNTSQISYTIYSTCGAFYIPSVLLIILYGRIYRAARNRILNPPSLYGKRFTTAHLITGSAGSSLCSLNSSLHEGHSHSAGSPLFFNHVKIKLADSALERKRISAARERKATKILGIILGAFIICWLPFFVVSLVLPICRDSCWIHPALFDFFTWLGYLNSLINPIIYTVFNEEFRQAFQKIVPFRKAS

5-HT2A receptor [4] = target: T1, 5-HT2A receptor; test: h5-HT2A affinity, antagonist radioligand [3H]ketanserin; assay type: binding
5-ht5a = 5-ht5a (Homo sapiens, UniProt P47898); test: PDSP screening affinity 5-ht5a; assay type: binding; settings: 5-ht5a affinity
Chain of 5-ht5a (P47898 whole entry): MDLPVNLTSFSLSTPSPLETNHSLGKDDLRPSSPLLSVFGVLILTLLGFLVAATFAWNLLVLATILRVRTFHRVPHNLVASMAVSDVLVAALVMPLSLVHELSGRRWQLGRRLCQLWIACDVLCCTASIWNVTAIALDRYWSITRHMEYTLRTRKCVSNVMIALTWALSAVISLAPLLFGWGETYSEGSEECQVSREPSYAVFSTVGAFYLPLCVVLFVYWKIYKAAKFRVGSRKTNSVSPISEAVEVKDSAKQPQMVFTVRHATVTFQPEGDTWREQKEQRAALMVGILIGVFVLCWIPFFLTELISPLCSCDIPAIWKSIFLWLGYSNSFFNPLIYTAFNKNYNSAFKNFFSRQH

5-HT6 = 5-HT6 (Homo sapiens, UniProt P50406); test: PDSP screening affinity 5-HT6; assay type: binding
Chain of 5-HT6 (P50406 whole entry): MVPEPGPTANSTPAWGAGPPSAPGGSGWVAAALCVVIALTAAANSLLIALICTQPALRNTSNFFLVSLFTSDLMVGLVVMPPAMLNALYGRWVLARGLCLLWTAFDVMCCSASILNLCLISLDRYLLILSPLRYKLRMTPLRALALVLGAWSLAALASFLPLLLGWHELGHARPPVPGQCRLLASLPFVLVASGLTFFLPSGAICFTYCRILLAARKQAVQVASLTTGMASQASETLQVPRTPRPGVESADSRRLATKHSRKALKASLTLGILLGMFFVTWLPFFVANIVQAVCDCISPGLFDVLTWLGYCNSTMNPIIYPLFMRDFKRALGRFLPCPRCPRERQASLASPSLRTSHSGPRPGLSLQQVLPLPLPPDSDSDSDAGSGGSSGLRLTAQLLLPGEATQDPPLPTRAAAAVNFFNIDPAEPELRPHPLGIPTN

h5-HT2A = h5-HT2A (Homo sapiens, UniProt P28223); test: Ca2+ mobilization assay; assay type: cell-based; settings: for Emax: HEK293, read-out: h5-HT2A Emax, percentage of the maximum response to 5-HT
Chain of h5-HT2A (P28223 whole entry): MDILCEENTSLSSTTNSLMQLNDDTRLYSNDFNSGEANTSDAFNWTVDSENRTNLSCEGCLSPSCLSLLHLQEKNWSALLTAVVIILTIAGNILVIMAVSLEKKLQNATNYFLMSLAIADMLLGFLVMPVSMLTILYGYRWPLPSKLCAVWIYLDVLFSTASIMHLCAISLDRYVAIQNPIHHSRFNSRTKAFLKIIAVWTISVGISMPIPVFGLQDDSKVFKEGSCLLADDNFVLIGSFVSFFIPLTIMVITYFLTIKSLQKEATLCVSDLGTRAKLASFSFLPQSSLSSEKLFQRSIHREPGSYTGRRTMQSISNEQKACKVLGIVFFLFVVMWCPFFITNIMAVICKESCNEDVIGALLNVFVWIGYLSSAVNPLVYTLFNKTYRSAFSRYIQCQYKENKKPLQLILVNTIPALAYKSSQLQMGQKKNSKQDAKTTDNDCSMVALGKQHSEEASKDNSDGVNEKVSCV

Male C57BL/6J mice = test: Mouse head twitch response; settings: for max counts: HTR counts; for ED50: Mus musculus, sc, read-out: ED50 mg/kg (95% CI), mouse head twitch
h5-HT2B = h5-HT2B (Homo sapiens, UniProt P41595); test: Ca2+ mobilization assay; assay type: cell-based; settings: for Emax: HEK293, read-out: h5-HT2B Emax; for EC50: h5-HT2B EC50, Ca2+ mobilization
Chain of h5-HT2B (P41595 whole entry): as the sequence (P41595 whole entry) above

[5] = r5-HT2C EC50, Ca2+ mobilization
[6] = r5-HT2C pEC50 ± SEM, Ca2+ mobilization

T1 sequence (P28223 whole entry): as the sequence (P28223 whole entry) above

| SMILES | Ki (5-HT2A receptor [1]) [nM] | Ki (human 5-HT2C receptor [2]) [nM] | Ki (5-HT2B) [nM] | EC50 (r5-HT2C; [5]) [nM] | EC50 (r5-HT2C; [6]) [nM] | Emax (r5-HT2C) [%] | EC50 (r5-HT2A) [nM] | Emax (r5-HT2A) [%] | Ki (5-HT1A; 5-HT1A affinity) [nM] | Emax (h5-HT2C) [%] | EC50 (h5-HT2C) [nM] | Ki (human 5-HT2C receptor [3]) [nM] | Ki (5-HT3) [nM] | Ki (5-ht1e) [nM] | Ki (5-HT1D) [nM] | Ki (5-HT2A receptor [4]) [nM] | Ki (5-ht5a) [nM] | Ki (5-HT6; 5-HT6 affinity) [nM] | EC50 (h5-HT2A) [nM] | Emax (h5-HT2A) [%] | also measured |
| --- | --- | --- | --- | --- | --- | --- | --- | --- | --- | --- | --- | --- | --- | --- | --- | --- | --- | --- | --- | --- | --- |
| COc1cccc(CNCCc2c[nH]c3ccc(OC)cc23)c1 [Compound 5b, N-(3-Methoxybenzyl)-2-(5-methoxy-1H-indol-3-yl)ethan-1-amine] | 1.05 | 5.89 | 2.5 | 168 | 166 | 102 ± 2 | 34 | 52.2 ± 0.9 | 335 | 65 ± 5 | 178 | 38 | > 10000 | > 10000 | 334 | 7.76 | 1260 | 25 | 6.2 | 70 ± 1 | Ki (5-HT7; 5-HT7 affinity): 406 nM; Ki (5-HT1B; 5-HT1B affinity): > 10000 nM; Ki (5-HT1A; 5-HT1A pKi ± SEM): 331 nM; max counts (Male C57BL/6J mice; SC): 9.2; ED50 (Male C57BL/6J mice): 3.28 mg/kg; activity in the HTR assay (active / inactive) (Male C57BL/6J mice; SC, doses up to 30 mg/kg): active; active doses (Male C57BL/6J mice; SC, mouse head twitch): 10 mg/kg; magnitude of peak effect × vehicle (Male C57BL/6J mice; SC, mouse head twitch): 3.7 × vehicle; maximally effective dose (Male C57BL/6J mice; SC, mouse head twitch): 10 mg/kg; HTR at 30 mg/kg (Male C57BL/6J mice; biphasic bell-shaped dose–response, 30 mg/kg SC): inactive; Emax (h5-HT2B): ≤ 15%; EC50 (h5-HT2B): 949 nM |
| COc1ccc2[nH]cc(CCNCc3cccc(I)c3)c2c1 [Compound 5i, N-(3-Iodobenzyl)-2-(5-methoxy-1H-indol-3-yl)ethan-1-amine] | 0.62 | 1.05 | 0.76 | 313 | 309 | 110 ± 3 | 120 | 73.4 ± 1.4 | 122 | 94 ± 5 | 445 | 6.46 | > 10000 | > 10000 | 199 | 3.47 | 1540 | 27 | 16 | 79 ± 1.1 | h5-HT2A Ki (5-HT2A receptor [1]; [125I]DOI): subnanomolar affinity; Ki (5-HT7; 5-HT7 pKi ± SEM): 21.9 nM; 5-HT1B pKi ± SEM (5-HT1B): 5.53 ± 0.05; Ki (5-HT1B; read-out: 5-HT1B affinity): 2960 nM; Ki (5-HT6; 5-HT6 pKi ± SEM): 26.3 nM; max counts (Male C57BL/6J mice; SC): 20.2; ED50 (Male C57BL/6J mice): 7.77 mg/kg; magnitude of peak effect × vehicle (Male C57BL/6J mice; SC, mouse head twitch): 3.4 × vehicle; maximally effective dose (Male C57BL/6J mice; SC, mouse head twitch): 30 mg/kg; Emax (h5-HT2B): 31 ± 2%; EC50 (h5-HT2B): 43 nM |
